Experiment [1] has as its system barnyardgrass. Put plainly: Test C flooded paddy test. It is filed as in vivo, Echinochloa crus-galli. To be noted: for Plant response rating, Barnyardgrass / pest or weed control at 500 g/ha: 500 g ai/ha, visual rating after 12 to 14 days; for pest or weed control at 62 g/ha / pest or weed control at 125 g/ha / pest or weed control at 250 g/ha / pest or weed control at 500 g/ha: Echinochloa crus-galli; for pest or weed control at 62 g/ha / pest or weed control at 125 g/ha / pest or weed control at 250 g/ha: read-out: Barnyardgrass plant response rating; for pest or weed control at 500 g/ha: read-out: Plant response rating, Barnyardgrass. The gist of the method:
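Scoring by eye, 12–14 days post-treatment, greenhouse-held plants vs. controls; 0 no effect, 100 complete control. Sprayed at 1–4 leaves (2–18 cm); paddy barnyardgrass at 2 leaves, flooded.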

Experiment [2] deals with ducksalad. Put plainly: Test C flooded paddy test. To be noted: for Plant response rating, Ducksalad / pest or weed control at 500 g/ha: 500 g ai/ha, visual rating after 12 to 14 days; for pest or weed control at 62 g/ha / pest or weed control at 125 g/ha / pest or weed control at 250 g/ha / pest or weed control at 500 g/ha: Heteranthera limosa; for pest or weed control at 500 g/ha: read-out: Plant response rating, Ducksalad. The class given is in vivo, Heteranthera limosa.

The subject of experiment [3] is morningglory. The experiment is described as follows: Test A pre-/postemergence herbicide test. It is filed as in vivo, Ipomoea spp. To be noted: Ipomoea, 240 h; for pest or weed control at 500 g/ha: 500 g ai/ha; for pest or weed control at 2000 g/ha: 2000 g ai/ha. A digest of the protocol:
(§1)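 Seeds sown in sandy loam received a preemergence directed soil spray of compound in non-phytotoxic solvent with surfactant; postemergence plants (2–10 cm, one- to two-leaf stage) were sprayed to runoff at the same time. After ~10 days in greenhouse, injury was rated visually versus untreated controls (0 = no effect, 100 = complete control).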

The subject of experiment [4] is redroot pigweed. Put plainly: Test A pre-/postemergence herbicide test. It is filed as in vivo, Amaranthus retroflexus. To be noted: Amaranthus retroflexus, 240 h; for pest or weed control at 500 g/ha: 500 g ai/ha; for pest or weed control at 2000 g/ha: 2000 g ai/ha. The gist of the method:
as §1

For experiment [5], the system named is giant foxtail. Put plainly: Test A pre-/postemergence herbicide test. It is filed as in vivo, Setaria faberi. As to conditions: Setaria faberi, 240 h; for pest or weed control at 500 g/ha: 500 g ai/ha; for pest or weed control at 2000 g/ha: 2000 g ai/ha. A digest of the protocol:
as §1

Setting [6] is: 62 g ai/ha, scale 0 to 100 (0 no effect, 100 complete control).
Setting [7] is: 125 g ai/ha, scale 0 to 100 (0 no effect, 100 complete control).
Where [8] appears, read: 250 g ai/ha, scale of 0 to 100, 0 is no effect, 100 is complete control.
[9] abbreviates: scale 0 to 100 (0 no effect, 100 complete control).
Setting [10] is: post-emergence, Postemergence, 0 to 100 scale, 0 no effect, 100 complete control, read-out: Morningglory plant response rating.
Where [11] appears, read: post-emergence, Postemergence, 0 to 100 scale, 0 no effect, 100 complete control, read-out: Plant response rating, Morningglory.
Where [12] appears, read: pre-emergence, Preemergence, visual rating, 0 to 100 scale (0 no effect, 100 complete control), read-out: Morningglory plant response rating.
The mark [13] stands for this setting: post-emergence, Postemergence, 0 to 100 scale, 0 no effect, 100 complete control, read-out: Pigweed plant response rating.
Setting [14] is: post-emergence, Postemergence, 0 to 100 scale, 0 no effect, 100 complete control, read-out: Plant response rating, Pigweed.
Setting [15] is: pre-emergence, Preemergence, visual rating, 0 to 100 scale (0 no effect, 100 complete control), read-out: Pigweed plant response rating.
Setting [16] is: pre-emergence, preemergence, visual injury, 0 to 100 scale (0 no effect, 100 complete control), read-out: Pigweed plant response rating.
Setting [17] is: post-emergence, Postemergence, 0 to 100 scale, 0 no effect, 100 complete control, read-out: Foxtail, Giant plant response rating.
[18] abbreviates: post-emergence, Postemergence, 0 to 100 scale, 0 no effect, 100 complete control, read-out: Plant response rating, Foxtail, Giant.
Where [19] appears, read: pre-emergence, Preemergence, visual rating, 0 to 100 scale (0 no effect, 100 complete control), read-out: Foxtail, Giant plant response rating.
The mark [20] stands for this setting: 125 g ai/ha, scale 0 to 100 (0 no effect, 100 complete control), read-out: Ducksalad plant response rating.
Setting [21] is: 250 g ai/ha, scale of 0 to 100, 0 is no effect, 100 is complete control, read-out: Ducksalad plant response rating.
The mark [22] stands for this setting: 62 g ai/ha, scale 0 to 100 (0 no effect, 100 complete control), read-out: Ducksalad plant response rating.

Read-outs that look alike come from different tables or passages of the source.

For `CCOC(=O)c1ccc(F)c(NC(=O)c2cc(C3(C)CC3)nn2CC)c1` [Compound 296], the figures for the “Barnyardgrass plant response rating” value in experiment [1] (setting [6]), in experiment [1] (setting [7]) and in experiment [1] (setting [8]) were 15, 25 and 50, respectively. Besides, the “Plant response rating, Barnyardgrass” value in experiment [1] (setting [9]) is reported as 65. Moreover, the “Ducksalad plant response rating” value in experiment [2] (62 g ai/ha, scale 0 to 100) is listed as 0; in experiment [2] (setting [7]) it was 0; in experiment [2] (setting [8]) it was 40. For the same compound, in experiment [2] (setting [9]), the “Plant response rating, Ducksalad” value amounted to 70.
For the compound `C#CCNC(=O)c1cccc(NC(=O)c2nn(C(C)(C)C)nc2CC)c1` [Compound 380], the “Barnyardgrass plant response rating” value in experiment [1] (setting [6]) is 35; in experiment [1] (setting [7]) it was 45; in experiment [1] (setting [8]), 65. The “Plant response rating, Barnyardgrass” value in experiment [1] (setting [9]) is on record as 70. For the same compound, the “Ducksalad plant response rating” value in experiment [2] (62 g ai/ha, scale 0 to 100) came to 25; in experiment [2] (setting [7]) it was 50; in experiment [2] (setting [8]) it was 75. Further, in experiment [2] (setting [9]), the “Plant response rating, Ducksalad” value was 85.
With `C=CCOc1cccc(NC(=O)c2cc(C(C)(C)C)nn2CC)c1` [Compound 412], the results for the “Barnyardgrass plant response rating” value in experiment [1] (setting [6]), in experiment [1] (setting [7]) and in experiment [1] (setting [8]) were 0, 20 and 35, respectively. Besides, the “Plant response rating, Barnyardgrass” value in experiment [1] (setting [9]) amounted to 45. The “Ducksalad plant response rating” value in experiment [2] (62 g ai/ha, scale 0 to 100) turned out to be 0; in experiment [2] (setting [7]), 30; in experiment [2] (setting [8]) it was 60. In addition, the “Plant response rating, Ducksalad” value in experiment [2] (setting [9]) is 90.
Turning to `C#CCOc1cccc(NC(=O)c2cc(C(C)(C)C)nn2CC)c1` [Compound 411], the “Barnyardgrass plant response rating” value in experiment [1] (setting [6]) is listed as 15; in experiment [1] (setting [7]) it was 25; in experiment [1] (setting [8]), 40. Besides, the “Plant response rating, Barnyardgrass” value in experiment [1] (setting [9]) was found to be 45. In addition, the “Ducksalad plant response rating” value in experiment [2] (62 g ai/ha, scale 0 to 100) is recorded as 25; in experiment [2] (setting [7]), 50; in experiment [2] (setting [8]), 70. Further, the “Plant response rating, Ducksalad” value in experiment [2] (setting [9]) is 80.
`CCn1nc(C(C)(C)C)cc1C(=O)Nc1cc(C(=O)OC)ccn1` [Compound 151, methyl 2-[[[3-(1,1-dimethylethyl)-1-ethyl-1H-pyrazol-5-yl]carbonyl]amino]-4-pyridinecarboxylate]: the pest or weed control at 500 g/ha in experiment [3] (setting [10]) turned out to be 10%; in experiment [3] (setting [12]) it was 0%; in experiment [4] (setting [13]) it was 35%; in experiment [4] (setting [16]) it was 0%; in experiment [5] (setting [17]) it was 10%; in experiment [5] (setting [19]), 0%. Also, the pest or weed control at 2000 g/ha stood at 20% in experiment [3] (setting [11]); 0% in experiment [3] (setting [12]); 70% in experiment [4] (setting [14]); 0% in experiment [4] (setting [15]); 10% in experiment [5] (setting [18]); 0% in experiment [5] (setting [19]).
As to `CCOC(=O)c1ccc(F)c(NC(=O)C2CC(C(C)(C)C)=NN2CC)c1` (centres unmarked) [Compound 267, ethyl 3-[[[3-(1,1-dimethylethyl)-1-ethyl-4,5-dihydro-1H-pyrazol-5-yl]carbonyl]amino]-4-fluorobenzoate], the pest or weed control at 500 g/ha in experiment [3] (setting [10]) turned out to be 30%; in experiment [3] (pre-emergence, preemergence, visual injury, 0 to 100 scale (0 no effect, 100 complete control), read-out: Morningglory plant response rating), 20%; in experiment [4] (setting [13]), 40%; in experiment [4] (setting [16]), 5%; in experiment [5] (setting [17]), 30%; in experiment [5] (pre-emergence, preemergence, visual injury, 0 to 100 scale (0 no effect, 100 complete control), read-out: Foxtail, Giant plant response rating), 75%. In addition, the pest or weed control at 2000 g/ha in experiment [3] (setting [11]) was found to be 45%; in experiment [3] (setting [12]), 45%; in experiment [4] (setting [14]), 60%; in experiment [4] (setting [15]), 80%; in experiment [5] (setting [18]) it was 55%; in experiment [5] (setting [19]), 85%.
As for `CCc1nn(C(C)C)nc1C(=O)Nc1cccc(C(=O)N(C)C)c1` [Compound 358, N-[3-[(dimethylamino)carbonyl)phenyl]-5-ethyl-2-(1-methylethyl)-2H-1,2,3-triazole-4-carboxamide], the pest or weed control at 62 g/ha in experiment [1] (setting [6]) was 0%; in experiment [2] (62 g ai/ha, scale 0 to 100, read-out: Ducksalad plant response rating) it was 0%. The pest or weed control at 125 g/ha in experiment [1] (setting [7]) is 60%; in experiment [2] (setting [20]), 80%. The pest or weed control at 250 g/ha in experiment [1] (setting [8]) turned out to be 75%; in experiment [2] (setting [21]), 90%. The pest or weed control at 500 g/ha in experiment [1] (setting [9]) turned out to be 85%; in experiment [2] (setting [9]), 95%.
As to `CCn1nc(C(C)(C)C)cc1C(=O)Nc1ccc(F)c(C(=O)N(C)C)c1` [Compound 236, N-[3-[(dimethylamino)carbonyl]-4-fluorophenyl]-3-(1,1-dimethylethyl)-1-ethyl-1H-pyrazole-5-carboxamide], the pest or weed control at 62 g/ha in experiment [1] (setting [6]) and in experiment [2] (setting [22]) was 0% each time. Moreover, the pest or weed control at 125 g/ha amounted to 0% in experiment [1] (setting [7]) and 40% in experiment [2] (setting [20]). The pest or weed control at 250 g/ha in experiment [1] (setting [8]) turned out to be 15%; in experiment [2] (setting [21]) it was 55%. Besides, the pest or weed control at 500 g/ha in experiment [1] (setting [9]) was found to be 40%; in experiment [2] (setting [9]), 80%.
In the case of `CCn1nc(C(C)(C)C)cc1C(=O)Nc1cccc(C(=O)OC)n1` [Compound 143, methyl 6-[[[3-(1,1-dimethylethyl)-1-ethyl-1H-pyrazol-5-yl]carbonyl]amino]-2-pyridinecarboxylate], the pest or weed control at 500 g/ha in experiment [3] (setting [10]) came out at 10%; in experiment [3] (setting [12]), 0%; in experiment [4] (setting [13]) it was 20%; in experiment [4] (setting [16]), 0%; in experiment [5] (setting [17]), 10%; in experiment [5] (setting [19]), 0%. The pest or weed control at 2000 g/ha in experiment [3] (setting [11]) turned out to be 25%; in experiment [3] (setting [12]), 0%; in experiment [4] (setting [14]) it was 35%; in experiment [4] (setting [15]), 0%; in experiment [5] (setting [18]) it was 15%; in experiment [5] (setting [19]), 0%.
With `CCNC(=O)c1cc(NC(=O)c2cn(C(C)(C)C)nc2CC)ccc1F` [Compound 241, 1-(1,1-dimethylethyl)-3-ethyl-N-[3-[(ethylamino)carbonyl]-4-fluorophenyl]-1H-pyrazole-4-carboxamide], the pest or weed control at 62 g/ha in experiment [1] (setting [6]) and in experiment [2] (setting [22]) was 0% throughout. The pest or weed control at 125 g/ha in experiment [1] (setting [7]) and in experiment [2] (setting [20]) was 0% in each case. Besides, the pest or weed control at 250 g/ha in experiment [1] (setting [8]) and in experiment [2] (setting [21]) was 0% throughout. In addition, the pest or weed control at 500 g/ha in experiment [1] (setting [9]) stood at 30%; in experiment [2] (setting [9]) it was 15%.

These data come from patent publication US20060069132A1, “Azolecarboxamide herbicides” (priority 2004, published 2006).
